Test results as given in US20220183294A1, “PESTICIDALLY ACTIVE AZOLE AMIDE COMPOUNDS” (SYNGENTA CROP PROTECTION AG, priority 2019, published 2022).

Assays:
Format in all cases: in vivo
[1] = system: Plutella xylostella (Diamond back moth); test: Example B5: Plutella xylostella (Diamond back moth), artificial diet, 24-well; conditions: 192 h, application rate 200 ppm, eggs, 8 days after infestation, read-out: control in at least one of the two categories (mortality or growth inhibition)
Protocol: Example B5: Plutella xylostella (Diamond back moth)
24-well microtiter plates with artificial diet were treated with aqueous test solutions prepared from 10′000 ppm DMSO stock solutions by pipetting. After drying, Plutella eggs were pipetted through a plastic stencil onto a gel blotting paper and the plate was closed with it. The samples were assessed for mortality and growth inhibition in comparison to untreated samples 8 days after infestation.
(§1) The following compounds gave an effect of at least 80% control in at least one of the two categories (mortality or growth inhibition) at an application rate of 200 ppm: […]

[2] = system: Spodoptera littoralis (Egyptian cotton leaf worm); test: Example B9: Spodoptera littoralis (Egyptian cotton leaf worm), sprayed cotton leaf discs; conditions: foliar, 72 h, application rate 200 ppm, L1 larvae, 3 days after infestation, read-out: control in at least one of the three categories (mortality, anti-feedant effect, or growth inhibition)
Protocol: Example B9: Spodoptera littoralis (Egyptian cotton leaf worm)
Cotton leaf discs were placed onto agar in 24-well microtiter plates and sprayed with aqueous test solutions prepared from 10′000 ppm DMSO stock solutions. After drying the leaf discs were infested with five L1 larvae. The samples were assessed for mortality, anti-feeding effect, and growth inhibition in comparison to untreated samples 3 days after infestation. Control of Spodoptera littoralis by a test sample is given when at least one of the categories mortality, anti-feedant effect, and growth inhibition is higher than the untreated sample.

[3] = system: Plutella xylostella (Diamondback Moth); test: Example B13: Plutella xylostella (Diamondback Moth), artificial diet, 96-well; conditions: 216 h, application rate 500 ppm, eggs/L1 larvae, 9 days after infestation
Protocol: Example B13: Plutella xylostella (Diamondback Moth)
96-well microtiter plates containing artificial diet were treated with aqueous test solutions, prepared from 10′000 ppm DMSO stock solutions, by a liquid handling robot. After drying, eggs (-30 per well) were infested onto a netted lid which was suspended above the diet. The eggs hatch and L1 larvae move down to the diet. The samples were assessed for mortality 9 days after infestation.
The following compounds gave an effect of at least 80% mortality at an application rate of 500 ppm: […]

[4] = system: Myzus persicae (Green peach aphid); test: Example B12: Myzus persicae (Green Peach Aphid), 96-well sucrose solution; conditions: 120 h, application rate 50 ppm, 5 days after infestation
Source text: Example B12: Myzus persicae (Green Peach Aphid)
Test compounds prepared from 10′000 ppm DMSO stock solutions were applied by a liquid handling robot into 96-well microtiter plates and mixed with a sucrose solution. Parafilm was stretched over the 96-well microtiter plate and a plastic stencil with 96 holes was placed onto the plate. Aphids were sieved into the wells directly onto the Parafilm. The infested plates were closed with a gel blotting card and a second plastic stencil and then turned upside down. The samples were assessed for mortality 5 days after infestation.

[5] = system: Chilo suppressalis (Striped rice stemborer); test: Example B4: Chilo suppressalis (Striped rice stemborer), artificial diet; conditions: 144 h, application rate 200 ppm, L2 larvae, 6 days after infestation, read-out: control in at least one of the three categories (mortality, anti-feedant effect, or growth inhibition)
Protocol: Example B4: Chilo suppressalis (Striped rice stemborer) 24-well microtiter plates with artificial diet were treated with aqueous test solutions prepared from 10′000 ppm DMSO stock solutions by pipetting. After drying, the plates were infested with L2 larvae (6-8 per well). The samples were assessed for mortality, anti-feeding effect, and growth inhibition in comparison to untreated samples 6 days after infestation. Control of Chilo suppressalis by a test sample is given when at least one of the categories mortality, anti-feedant effect, and growth inhibition is higher than the untreated sample.

[6] = system: Diabrotica balteata (Corn root worm); test: Example B1: Diabrotica balteata (Corn root worm), sprayed maize sprouts; conditions: 96 h, application rate 200 ppm, L2 larvae, 4 days after infestation, read-out: control in at least one of the two categories (mortality or growth inhibition)
Protocol: Example B1: Diabrotica balteata (Corn root worm)
Maize sprouts placed onto an agar layer in 24-well microtiter plates were treated with aqueous test solutions prepared from 10′000 ppm DMSO stock solutions by spraying. After drying, the plates were infested with L2 larvae (6 to 10 per well). The samples were assessed for mortality and growth inhibition in comparison to untreated samples 4 days after infestation.
as §1

[7] = system: Euschistus heros (Neotropical Brown Stink Bug); test: Example B2: Euschistus heros (Neotropical Brown Stink Bug), sprayed soybean leaves; conditions: 120 h, application rate 200 ppm, N2 nymphs, 5 days after infestation, read-out: effect in at least one of the two categories (mortality or growth inhibition)
Protocol: Example B2: Euschistus heros (Neotropical Brown Stink Bug)
Soybean leaves on agar in 24-well microtiter plates were sprayed with aqueous test solutions prepared from 10′000 ppm DMSO stock solutions. After drying the leaves were infested with N2 nymphs. The samples were assessed for mortality and growth inhibition in comparison to untreated samples 5 days after infestation.
The following compounds gave an effect of at least 80% in at least one of the two categories (mortality or growth inhibition) at an application rate of 200 ppm: […]

[8] = system: Spodoptera littoralis (Egyptian cotton leaf worm); test: Example B10: Spodoptera littoralis (Egyptian cotton leaf worm), uptake by lettuce roots from agar; conditions: 144 h, test rate 12.5 ppm, eggs, 6 days after infestation, read-out: control in at least one of the three categories (mortality, anti-feeding, or growth inhibition)
Source text: Example B10: Spodoptera littoralis (Egyptian cotton leaf worm)
Test compounds were applied by pipette from 10′000 ppm DMSO stock solutions into 24-well plates and mixed with agar. Lettuce seeds were placed onto the agar and the multi well plate was closed by another plate which contained also agar. After 7 days the compound was absorbed by the roots and the lettuce grew into the lid plate. The lettuce leaves were then cut off into the lid plate. Spodoptera eggs were pipetted through a plastic stencil onto a humid gel blotting paper and the lid plate was closed with it. The samples were assessed for mortality, anti-feedant effect and growth inhibition in comparison to untreated samples 6 days after infestation.
The following compounds gave an effect of at least 80% control in at least one of the three categories (mortality, anti-feeding, or growth inhibition) at a test rate of 12.5 ppm: […]

[9] = system: Myzus persicae (Green peach aphid); test: Example B8: Myzus persicae (Green peach aphid): Intrinsic activity; conditions: 120 h, test rate 12 ppm, 5 days after infestation
Source text: Example B8: Myzus persicae (Green peach aphid): Intrinsic activity
Test compounds prepared from 10′000 ppm DMSO stock solutions were applied by pipette into 24-well microtiter plates and mixed with sucrose solution. The plates were closed with a stretched Parafilm. A plastic stencil with 24 holes was placed onto the plate and infested pea seedlings were placed directly on the Parafilm. The infested plate was closed with a gel blotting paper and another plastic stencil and then turned upside down. The samples were assessed for mortality 5 days after infestation.

[10] = system: Frankliniella occidentalis (Western flower thrips); test: Example B3: Frankliniella occidentalis (Western flower thrips): Feeding/contact activity; conditions: 168 h, application rate 200 ppm, population of mixed ages, 7 days after infestation
Protocol: Example B3: Frankliniella occidentalis (Western flower thrips):Feeding/contact activity
Sunflower leaf discs were placed on agar in 24-well microtiter plates and sprayed with aqueous test solutions prepared from […] stock solutions. After drying the leaf discs were infested with a Frankliniella population of mixed ages. The samples were assessed for mortality 7 days after infestation.

C[C@H](NC(=O)c1cc(C(F)(F)F)cc(C(F)(F)C2CC2)c1)c1ncnn1-c1ncc(OCC(F)F)cn1 [P7, 3-[cyclopropyl(difluoro)methyl]-N-[(1S)-1-[2-[5-(2,2-difluoroethoxy)pyrimidin-2-yl]-1,2,4-triazol-3-yl]ethyl]-5-(trifluoromethyl) benzamide]
≥ 80%: percent control (mortality or growth inhibition) at 200 ppm [1] | percent control (mortality, anti-feedant effect or growth inhibition) at 200 ppm [2] | mortality at 500 ppm [3] | mortality at 50 ppm [4] | percent control (mortality, anti-feedant effect or growth inhibition) at 200 ppm [5]

CC(NC(=O)c1cc(C2CC2)cc(C(F)(F)F)c1)c1ncnn1-c1ncc(OC(F)F)cn1 (stereo not shown) [P21, 3-cyclopropyl-N-[1-[2-[5-(difluoromethoxy)pyrimidin-2-yl]-1,2,4-triazol-3-yl]ethyl]-5-(trifluoromethyl) benzamide]
≥ 80%: percent control (mortality or growth inhibition) at 200 ppm [1] | percent control (mortality, anti-feedant effect or growth inhibition) at 200 ppm [2] | percent control (mortality or growth inhibition) at 200 ppm [6] | percent effect (mortality or growth inhibition) at 200 ppm [7] | percent control (mortality, anti-feedant effect or growth inhibition) at 200 ppm [5]

C[C@H](NC(=O)c1cc(C(F)(F)F)nc(C2(C#N)CC2)c1)c1ncnn1-c1ccc(C#N)cn1 [P1, 2-(1-cyanocyclopropyl)-N-[(1S)-1-[2-(5-cyano-2-pyridyl)-1,2,4-triazol-3-yl]ethyl]-6-(trifluoromethyl)pyridine-4-carboxamide]
≥ 80%: percent control (mortality or growth inhibition) at 200 ppm [1] | percent control (mortality, anti-feedant effect or growth inhibition) at 200 ppm [2] | mortality at 500 ppm [3] | percent control (mortality, anti-feeding or growth inhibition) at 12.5 ppm [8] | percent control (mortality or growth inhibition) at 200 ppm [6] | percent control (mortality, anti-feedant effect or growth inhibition) at 200 ppm [5]

C[C@H](NC(=O)c1cc(C(F)(F)F)cc(S(=O)(=O)C(F)(F)F)c1)c1ncnn1-c1ccc(C#N)cn1 [P2, N-[(1S)-1-[2-(5-cyano-2-pyridyl)-1,2,4-triazol-3-yl]ethyl]-3-(trifluoromethyl)-5-(trifluoromethylsulfonyl) benzamide]
≥ 80%: percent control (mortality or growth inhibition) at 200 ppm [1] | percent control (mortality, anti-feedant effect or growth inhibition) at 200 ppm [2] | mortality at 500 ppm [3] | percent control (mortality, anti-feeding or growth inhibition) at 12.5 ppm [8] | percent control (mortality or growth inhibition) at 200 ppm [6] | percent control (mortality, anti-feedant effect or growth inhibition) at 200 ppm [5]

CC(NC(=O)c1cc(C(F)(F)F)cc(C(F)(F)C2CC2)c1)c1ncnn1-c1ncc(OC(F)F)cn1 (stereo not shown) [P6, 3-[cyclopropyl(difluoro)methyl]-N-[1-[2-[5-(difluoromethoxy)pyrimidin-2-yl]-1,2,4-triazol-3-yl]ethyl]-5-(trifluoromethyl) benzamide]
≥ 80%: percent control (mortality or growth inhibition) at 200 ppm [1] | percent control (mortality, anti-feedant effect or growth inhibition) at 200 ppm [2] | mortality at 500 ppm [3] | percent control (mortality or growth inhibition) at 200 ppm [6] | percent effect (mortality or growth inhibition) at 200 ppm [7] | percent control (mortality, anti-feedant effect or growth inhibition) at 200 ppm [5]

CC(NC(=O)c1cc(C2CC2)nc(C(F)(F)F)c1)c1ncnn1-c1ncc(OCC(F)F)cn1 (stereo not shown) [P22, 2-cyclopropyl-N-[1-[2-[5-(2,2-difluoroethoxy)pyrimidin-2-yl]-1,2,4-triazol-3-yl]ethyl]-6-(trifluoromethyl)pyridine-4-carboxamide]
≥ 80%: percent control (mortality or growth inhibition) at 200 ppm [1] | percent control (mortality, anti-feedant effect or growth inhibition) at 200 ppm [2] | mortality at 12 ppm [9] | percent control (mortality or growth inhibition) at 200 ppm [6] | percent control (mortality, anti-feedant effect or growth inhibition) at 200 ppm [5]

CC(NC(=O)c1cc(C(F)(F)F)cc(S(=O)(=O)C(F)(F)F)c1)c1ncnn1-c1ccc(C#N)cn1 (stereo not shown) [P5, N-[1-[2-(5-cyano-2-pyridyl)-1,2,4-triazol-3-yl]ethyl]-3-(trifluoromethyl)-5-(trifluoromethylsulfonyl)benzamide]
≥ 80%: percent control (mortality or growth inhibition) at 200 ppm [1] | percent control (mortality, anti-feedant effect or growth inhibition) at 200 ppm [2] | mortality at 500 ppm [3] | percent control (mortality, anti-feeding or growth inhibition) at 12.5 ppm [8] | mortality at 200 ppm [10] | percent control (mortality or growth inhibition) at 200 ppm [6] | percent control (mortality, anti-feedant effect or growth inhibition) at 200 ppm [5]
